Tests used:
MEF cells = assay: Clonogenic survival assay, MEF; format: cell-based, mouse; settings: AZD2281 1 μM versus MMS only
Description: Briefly, MEF cells were trypsinized and the appropriate number of cells was replated on 10 cm tissue culture dishes. […] Cells were fixed and stained using staining solution (0.05% crystal violet, 50% methanol in PBS); colonies were counted using an AlphaImager 3400 (Alpha Innotech Inc.). The percent of survival was determined as described (Hall & Giccia, 2005, “Radiobiology for the Radiologist”, 6th Ed., Philadelphia, Pa.: Lippincott Williams & Wilkins, pp. 30-45). The percent of survival obtained from untreated cells was normalized to 100% survival.

RAD51 = target: T1, RAD51 (Homo sapiens, UniProt Q06609); assay: D-loop assay for RAD51; format: biochemical; settings: for inhibitory effect on D-loop formation by RAD51, in words: B02 derivatives 50 μM; for IC50: RAD51 1 μM, ssDNA 3 μM, dsDNA 50 μM, compound added after filament formation
T1 construct: made in house
T1 sequence (Q06609 1-339): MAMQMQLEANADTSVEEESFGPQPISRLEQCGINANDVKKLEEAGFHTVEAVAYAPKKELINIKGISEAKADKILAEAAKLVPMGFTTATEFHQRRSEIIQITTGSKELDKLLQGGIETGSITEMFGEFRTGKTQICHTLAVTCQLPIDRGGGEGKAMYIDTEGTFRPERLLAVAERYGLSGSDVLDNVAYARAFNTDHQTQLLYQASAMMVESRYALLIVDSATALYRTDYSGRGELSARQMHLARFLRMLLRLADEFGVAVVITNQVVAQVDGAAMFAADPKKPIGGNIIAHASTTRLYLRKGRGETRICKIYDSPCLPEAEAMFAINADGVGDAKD
Description: When indicated, chemical compounds in question were added in specified concentrations and incubation was continued for 30 min at 37° C. D-loop formation was initiated by addition of supercoiled pUC19 dsDNA (50 μM, nt) and continued for 15 min. Reactions were stopped by addition of SDS to 1% (w/v) and proteinase K to 880 μg ml^−1 followed by incubation for 15 min at 37° C. […] The yield of joint molecules was expressed as a percentage of the total plasmid DNA.
The reaction was deproteinized and analyzed as described above.
(§1) IC50 values were calculated using GraphPad Prism V5.0 software and the sigmoidal dose-response function. The data were obtained from three independent repeats of experiments.

RecA = target: T2, RecA (Escherichia coli, UniProt P0A7G6); assay: biochemical; parameters: species or system E. coli; settings: for IC50: IC50 (RecA), RecA 1 μM, ssDNA 3 μM, dsDNA 50 μM; for inhibition of RecA DNA strand exchange, in words: up to 100 μM
T2 construct: purchased USB Inc. (Cleveland, Ohio)
Description: (Mazin et al., 2000, EMBO J. 19:1148-56). When indicated, chemical compounds in specified concentrations were added and incubation was continued for 30 min at 37° C. D-loop formation was initiated by addition of supercoiled pUC19 dsDNA (50 μM, nt) and carried out for 3 min at 37° C. The DNA products were deproteinized and analyzed as described above for the Rad51-promoted reaction.
as §1

T2 sequence (P0A7G6 whole entry): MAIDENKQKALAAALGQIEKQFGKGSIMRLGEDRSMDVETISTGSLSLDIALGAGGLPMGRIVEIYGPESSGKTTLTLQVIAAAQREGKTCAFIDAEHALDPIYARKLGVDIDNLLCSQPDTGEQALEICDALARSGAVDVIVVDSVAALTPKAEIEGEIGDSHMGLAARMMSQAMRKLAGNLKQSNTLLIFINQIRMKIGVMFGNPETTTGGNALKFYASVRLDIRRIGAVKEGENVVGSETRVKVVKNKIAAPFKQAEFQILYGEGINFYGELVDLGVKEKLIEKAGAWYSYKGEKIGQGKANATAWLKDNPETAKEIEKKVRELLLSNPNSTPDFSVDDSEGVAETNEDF

| SMILES | sensitivity to MMS (MEF cells) | inhibitory effect on D-loop formation by RAD51, in words (RAD51) | IC50 (RAD51) [µM] | IC50 (RecA) [µM] | inhibition of RecA DNA strand exchange, in words (RecA) |
| --- | --- | --- | --- | --- | --- |
| O=C(c1cc(Cc2n[nH]c(=O)c3ccccc23)ccc1F)N1CCN(C(=O)C2CC2)CC1 [AZD2281, 4-[(3-[(4-cyclopropylcarbonyl)piperazin-4-yl]carbonyl)-4-fluorophenyl]methyl(2H)phthalazin-1-one, reference compound] | more sensitive | – | – | – | – |
| CCn1c(/C=C/c2cccnc2)nc2ccccc2c1=O [Compound C3a, (E)-3-ethyl-2-(2-(pyridin-3-yl)vinyl)quinazolin-4(3H)-one] | – | retain the inhibitory effect | 15.3 | > 100 | do not inhibit |
| Cc1cccc(-n2c(/C=C/c3cccnc3)nc3ccccc3c2=O)c1 [Compound C3b, (E)-2-(2-(pyridin-3-yl)vinyl)-3-(m-tolyl)quinazolin-4(3H)-one] | – | retain the inhibitory effect | 27.3 | > 100 | do not inhibit |
| Cc1ccc(-n2c(C=Cc3cccnc3)nc3ccccc3c2=O)cc1 [Compound C3c] | – | eliminates the inhibition | – | – | – |
| O=c1c2ccccc2nc(C=Cc2cccnc2)n1-c1ccccc1 [Compound C3d] | – | eliminates the inhibition | – | – | – |
| Cn1c(C=Cc2cccnc2)nc2ccccc2c1=O [Compound C3e] | – | eliminates the inhibition | – | – | – |

Reference: US9750742B2, “Small molecular inhibitors of RAD51 recombinase and methods thereof” (Drexel University, priority 2011, dated 2017)
